Where two headings read alike, the source gives them in different places.

One experiment concerns the target T1, JAK2 (Homo sapiens, UniProt O60674).
T1 construct: host or cells: baculovirus expression system
The experiment is described as follows: Recombinant Human JAK2 Kinase Assay (TRF). The class given is biochemical. The settings on record: read-out: JAK2 Potency. In short, it runs like this:
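Kinase activity of baculovirus-expressed JAK2 is followed on a surface-immobilised biotinylated peptide, with the reaction run for 20 min at room temperature in buffer containing 0.2 μM ATP and manganese. Phosphorylation is read with Eu-N1 PY100 antibody.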

Another experiment has as its target T2, ALK (Homo sapiens, UniProt Q9UM73).
T2 construct: host or cells: baculovirus expression system
The experiment can be described thus: ALK Kinase Assay (ELISA/TRF, PLC-γ substrate). The class given is biochemical. Conditions: read-out: ALK Potency. In short, it runs like this: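 IC50 values derive from percent inhibition plotted against log10 compound concentration and fitted to a variable-slope sigmoidal equation. The underlying reaction used 30 ng/ml ALK acting on immobilized PLC-γ (10 μg/mL in TBS) at 37° C for 15 minutes, read with Eu-N1 PT66 antibody.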

Where [1] appears, read: JAK2 kinase inhibition, 0.2 μM ATP.
The mark [2] stands for this setting: ALK kinase inhibition, 1 μM ATP.

T2 sequence (Q9UM73 19-1620): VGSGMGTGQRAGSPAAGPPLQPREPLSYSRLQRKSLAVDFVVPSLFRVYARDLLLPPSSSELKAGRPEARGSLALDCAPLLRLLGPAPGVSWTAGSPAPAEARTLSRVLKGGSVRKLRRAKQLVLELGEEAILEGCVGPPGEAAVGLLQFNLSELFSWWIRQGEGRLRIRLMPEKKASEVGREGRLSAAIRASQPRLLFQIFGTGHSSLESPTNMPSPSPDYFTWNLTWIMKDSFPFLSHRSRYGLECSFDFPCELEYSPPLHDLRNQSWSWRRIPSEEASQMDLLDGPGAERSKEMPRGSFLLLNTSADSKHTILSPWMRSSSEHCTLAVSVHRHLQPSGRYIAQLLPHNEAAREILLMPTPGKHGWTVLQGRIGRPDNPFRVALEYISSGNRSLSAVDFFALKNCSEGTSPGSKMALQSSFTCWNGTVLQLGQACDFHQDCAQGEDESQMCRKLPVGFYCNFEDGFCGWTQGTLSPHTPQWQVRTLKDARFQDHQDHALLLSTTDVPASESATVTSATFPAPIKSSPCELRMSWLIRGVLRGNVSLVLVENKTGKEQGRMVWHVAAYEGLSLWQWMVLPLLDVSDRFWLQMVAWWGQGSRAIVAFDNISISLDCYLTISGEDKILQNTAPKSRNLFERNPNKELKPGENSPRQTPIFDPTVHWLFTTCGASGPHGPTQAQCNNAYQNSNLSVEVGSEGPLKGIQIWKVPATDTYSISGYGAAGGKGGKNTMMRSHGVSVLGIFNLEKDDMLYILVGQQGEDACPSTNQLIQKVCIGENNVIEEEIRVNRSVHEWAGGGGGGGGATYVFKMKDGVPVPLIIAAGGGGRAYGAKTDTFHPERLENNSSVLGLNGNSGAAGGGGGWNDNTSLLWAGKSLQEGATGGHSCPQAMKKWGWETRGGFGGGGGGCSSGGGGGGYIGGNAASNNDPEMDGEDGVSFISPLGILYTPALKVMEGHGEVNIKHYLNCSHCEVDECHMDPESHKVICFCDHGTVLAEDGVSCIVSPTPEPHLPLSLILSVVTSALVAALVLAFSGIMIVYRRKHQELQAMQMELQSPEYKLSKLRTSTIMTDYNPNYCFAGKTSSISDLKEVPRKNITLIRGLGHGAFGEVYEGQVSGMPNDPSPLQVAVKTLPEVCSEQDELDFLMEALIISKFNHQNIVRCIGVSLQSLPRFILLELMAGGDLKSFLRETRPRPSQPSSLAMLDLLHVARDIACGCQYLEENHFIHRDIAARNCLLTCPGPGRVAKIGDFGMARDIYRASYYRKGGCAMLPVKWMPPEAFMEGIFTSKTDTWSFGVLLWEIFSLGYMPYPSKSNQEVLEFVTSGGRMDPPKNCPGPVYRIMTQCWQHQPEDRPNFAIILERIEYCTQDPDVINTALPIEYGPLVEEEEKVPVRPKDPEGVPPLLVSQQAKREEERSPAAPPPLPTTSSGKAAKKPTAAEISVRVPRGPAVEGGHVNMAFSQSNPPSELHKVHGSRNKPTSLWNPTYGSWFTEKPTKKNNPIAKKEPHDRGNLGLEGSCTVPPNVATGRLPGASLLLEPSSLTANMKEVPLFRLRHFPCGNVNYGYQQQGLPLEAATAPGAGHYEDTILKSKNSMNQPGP
T1 sequence (O60674 whole entry): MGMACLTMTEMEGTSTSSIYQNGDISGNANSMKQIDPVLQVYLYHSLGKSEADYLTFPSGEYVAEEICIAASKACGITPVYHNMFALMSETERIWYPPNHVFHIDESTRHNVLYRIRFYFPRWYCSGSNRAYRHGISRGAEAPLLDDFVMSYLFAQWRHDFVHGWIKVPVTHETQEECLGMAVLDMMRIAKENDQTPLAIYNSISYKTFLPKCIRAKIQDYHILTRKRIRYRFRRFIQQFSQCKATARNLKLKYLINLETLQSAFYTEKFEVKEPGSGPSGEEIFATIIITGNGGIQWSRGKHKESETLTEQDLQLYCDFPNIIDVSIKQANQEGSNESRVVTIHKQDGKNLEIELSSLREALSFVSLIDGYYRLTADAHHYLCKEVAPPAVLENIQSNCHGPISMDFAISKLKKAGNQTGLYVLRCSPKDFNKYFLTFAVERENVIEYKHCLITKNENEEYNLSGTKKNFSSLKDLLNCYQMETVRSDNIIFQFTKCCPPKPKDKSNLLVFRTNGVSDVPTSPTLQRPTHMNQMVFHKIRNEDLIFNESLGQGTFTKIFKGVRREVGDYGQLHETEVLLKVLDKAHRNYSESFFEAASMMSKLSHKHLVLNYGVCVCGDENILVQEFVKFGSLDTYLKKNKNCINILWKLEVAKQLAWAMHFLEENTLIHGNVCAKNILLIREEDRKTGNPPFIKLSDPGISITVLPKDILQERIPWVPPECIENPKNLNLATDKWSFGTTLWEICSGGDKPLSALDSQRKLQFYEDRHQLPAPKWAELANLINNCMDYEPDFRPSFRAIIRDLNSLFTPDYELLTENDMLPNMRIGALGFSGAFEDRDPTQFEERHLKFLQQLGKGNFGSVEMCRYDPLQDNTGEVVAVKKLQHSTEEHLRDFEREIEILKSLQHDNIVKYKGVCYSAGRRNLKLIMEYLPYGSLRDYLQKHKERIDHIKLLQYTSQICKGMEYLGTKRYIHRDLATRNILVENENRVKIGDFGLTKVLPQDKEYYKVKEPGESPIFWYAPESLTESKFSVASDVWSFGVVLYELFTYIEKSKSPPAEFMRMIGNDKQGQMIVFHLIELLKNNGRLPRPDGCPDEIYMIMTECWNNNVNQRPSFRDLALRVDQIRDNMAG

For the compound `C[C@H](O)CN1CCN(c2cccc(Nc3ncc4ccc(-c5ccc(S(C)(=O)=O)cc5)n4n3)c2)CC1` [Example 216, (S)-1-(4-{3-[7-(4-Methanesulfonyl-phenyl)-pyrrolo[2,1-f][1,2,4]triazin-2-ylamino]-phenyl}-piperazin-1-yl)-propan-2-ol], the results for the IC50 at JAK2 (JAK2 Kinase Inhibition) and at ALK (ALK Kinase Inhibition) were under 0.1 µM and 0.1 to 1 µM, respectively.
In the case of “[7-(6-Methoxy-pyridin-3-yl)-pyrrolo[2,1-f][1,2,4]triazin-2-yl]-(2-methyl-1,2,3,4-tetrahydro-isoquinolin-7-yl)-amine [Example 985]”, the IC50 on JAK2 (setting [1]) and on ALK (setting [2]) was under 0.1 µM in each case.
Take `CN1CCN(c2ccc(Nc3ncc4ccc(-c5ccccc5OCC#N)n4n3)cc2)CC1` [Example 1141, (2-{2-[4-(4-Methyl-piperazin-1-yl)-phenylamino]-pyrrolo[2,1-f][1,2,4]triazin-7-yl}-phenoxy)-acetonitrile]: the IC50 at JAK2 (setting [1]) and on ALK (setting [2]) was under 0.1 µM throughout.
For `COc1cc(-c2ccc3cnc(Nc4ccc(C5CCN(CC(N)=O)CC5)cc4)nn23)c(OC)nn1` [Example 580, 2-(4-{4-[7-(3,6-Dimethoxy-pyridazin-4-yl)-pyrrolo[2,1-f][1,2,4]triazin-2-ylamino]-phenyl}-piperidin-1-yl)-acetamide], the IC50 on JAK2 (setting [1]) is under 0.1 µM; at ALK (setting [2]), 0.1 to 1 µM.
For the compound `CS(=O)(=O)c1ccc(-c2ccc3cnc(-n4cnc5cnccc54)nn23)cc1` [Example 330, 1-[7-(4-Methanesulfonyl-phenyl)-pyrrolo[2,1-f][1,2,4]triazin-2-yl]-1H-imidazo[4,5-c]pyridine], the IC50 on JAK2 (JAK2 Kinase Inhibition) and on ALK (ALK Kinase Inhibition) was 1 to 10 µM in each case.
On to `FC1(F)Oc2cccc(-c3ccc4cnc(Nc5ccc6c(c5)CCC(N5CCOCC5)CC6)nn34)c2O1` (stereo not shown) [Example 1535, [7-(2,2-Difluoro-benzo[1,3]dioxol-4-yl)-pyrrolo[2,1-f][1,2,4]triazin-2-yl]-(7-morpholin-4-yl-6,7,8,9-tetrahydro-5H-benzocyclohepten-2-yl)-amine], for which the figures for the IC50 on JAK2 (JAK2 Kinase Inhibition) and on ALK (ALK Kinase Inhibition) were under 0.1 µM and 1 to 10 µM, respectively.
For `CN(c1ccccc1-c1ccc2cnc(Nc3ccc(F)c(N4CCOCC4)c3)nn12)S(C)(=O)=O` [Example 388, N-{2-[2-(4-Fluoro-3-morpholin-4-yl-phenylamino)-pyrrolo[2,1-f][1,2,4]triazin-7-yl]-phenyl}-N-methyl-methanesulfonamide], the figures for the IC50 at JAK2 (JAK2 Kinase Inhibition) and at ALK (ALK Kinase Inhibition) were under 0.1 µM and 0.1 to 1 µM, respectively.
For `N#Cc1ccc2cnc(Nc3ccc(N4CCOCC4)cc3)nn12` [Example 51, 2-(4-Morpholin-4-yl-phenylamino)-pyrrolo[2,1-f][1,2,4]triazine-7-carbonitrile], the IC50 on JAK2 (JAK2 Kinase Inhibition) was under 0.1 µM; on ALK (ALK Kinase Inhibition), over 10 µM.
Regarding `c1cncc(-c2ccc3cnc(Nc4cccc(N5CCOCC5)c4)nn23)c1` [Example 309, (3-Morpholin-4-yl-phenyl)-(7-pyridin-3-yl-pyrrolo[2,1-f][1,2,4]triazin-2-yl)-amine], the IC50 on JAK2 (JAK2 Kinase Inhibition) was under 0.1 µM; at ALK (ALK Kinase Inhibition) it was 1 to 10 µM.
Regarding `CN1CCN(c2ccc(Nc3ncc4cc(-c5cccc(CCC#N)c5)cn4n3)cc2)CC1` [Example 1161, 3-(3-{2-[4-(4-Methyl-piperazin-1-yl)-phenylamino]-pyrrolo[2,1-f][1,2,4]triazin-6-yl}-phenyl)-propionitrile], the IC50 was under 0.1 µM on JAK2 (setting [1]) and 0.1 to 1 µM at ALK (setting [2]).
As to `COc1c(Nc2ncc3ccc(-c4ccccc4N(C)S(C)(=O)=O)n3n2)ccc(N2CCN(C[C@H](C)O)CC2)c1F` [Example 1478, N-[2-(2-{3-Fluoro-4-[4-((S)-2-hydroxy-propyl)-piperazin-1-yl]-2-methoxy-phenylamino}-pyrrolo[2,1-f][1,2,4]triazin-7-yl)-phenyl]-N-methyl-methanesulfonamide], the IC50 at JAK2 (JAK2 Kinase Inhibition) was 1 to 10 µM; on ALK (ALK Kinase Inhibition), under 0.1 µM.
As for `CCN(c1ccccc1-c1ccc2cnc(Nc3ccc(C4CCN(C[C@H](O)CO)CC4)cc3OC)nn12)S(C)(=O)=O` [Example 872, N-[2-(2-{4-[1-((S)-2,3-Dihydroxy-propyl)-piperidin-4-yl]-2-methoxy-phenylamino}-pyrrolo[2,1-f][1,2,4]triazin-7-yl)-phenyl]-N-ethyl-methanesulfonamide], the IC50 was 0.1 to 1 µM at JAK2 (setting [1]) and under 0.1 µM on ALK (setting [2]).
The matching figures for `COc1cc(CN2CCN(C[C@@H](O)CO)CC2)ccc1Nc1ncc2ccc(-c3ccccc3N(C)S(C)(=O)=O)n2n1` [Example 1228, N-[2-(2-{4-[4-((R)-2,3-Dihydroxy-propyl)-piperazin-1-ylmethyl]-2-methoxy-phenylamino}-pyrrolo[2,1-f][1,2,4]triazin-7-yl)-phenyl]-N-methyl-methanesulfonamide]: 0.1 to 1 µM and under 0.1 µM.
Regarding `CC(C)(O)CN1CCN(c2cccc(Nc3ncc4ccc(-c5cccc(Cl)c5)n4n3)c2)CC1` [Example 220, 1-(4-{3-[7-(3-Chloro-phenyl)-pyrrolo[2,1-f][1,2,4]triazin-2-ylamino]-phenyl}-piperazin-1-yl)-2-methyl-propan-2-ol], the IC50 was under 0.1 µM at JAK2 (JAK2 Kinase Inhibition) and 0.1 to 1 µM on ALK (ALK Kinase Inhibition).
For the compound `CC(C)(C)NS(=O)(=O)c1cccc(-c2ccc3cnc(Nc4ccc(CN5CCS(=O)(=O)CC5)cc4)nn23)c1` [Example 1057, N-tert-Butyl-3-{2-[4-(1,1-dioxo-1 $1(6)-thiomorpholin-4-ylmethyl)-phenylamino]-pyrrolo[2,1-f][1,2,4]triazin-7-yl}-benzenesulfonamide], the IC50 at JAK2 (setting [1]) is under 0.1 µM; on ALK (setting [2]), 0.1 to 1 µM.
For the compound `COc1cc(C2(NC(=O)C(F)(F)F)CCC2)ccc1Nc1ncc2ccc(-c3ccccc3N(C)S(C)(=O)=O)n2n1` [Example 1254, 2,2,2-Trifluoro-N-[1-(4-{7-[2-(methanesulfonyl-methyl-amino)-phenyl]-pyrrolo[2,1-f][1,2,4]triazin-2-ylamino}-3-methoxy-phenyl)-cyclobutyl]-acetamide], the IC50 on JAK2 (setting [1]) is 1 to 10 µM; on ALK (setting [2]), 0.1 to 1 µM.
On to `COc1cc(N2CCN(C)CC2)ccc1Nc1ncc2cc3ccccc3n2n1` [Example 267, [2-Methoxy-4-(4-methyl-piperazin-1-yl)-phenyl]-[1,2,4]triazino[1,6-a]indol-2-yl-amine], for which the values for the IC50 at JAK2 (JAK2 Kinase Inhibition) and at ALK (ALK Kinase Inhibition) were 1 to 10 µM and 0.1 to 1 µM, respectively.
For `CN(c1ccccc1-c1ccc2cnc(Nc3ccc(=O)[nH]c3)nn12)S(C)(=O)=O` [Example 596, N-Methyl-N-{2-[2-(6-oxo-1,6-dihydro-pyridin-3-ylamino)-pyrrolo[2,1-f][1,2,4]triazin-7-yl]-phenyl}-methanesulfonamide], the IC50 on JAK2 (setting [1]) was under 0.1 µM; at ALK (setting [2]), 1 to 10 µM.
`CN1CCCC1COc1cc(Nc2ncc3ccc(-c4cccc(S(C)(=O)=O)c4)n3n2)ccc1Cl` (stereo not shown) [Example 1013, [4-Chloro-3-(1-methyl-pyrrolidin-2-ylmethoxy)-phenyl]-[7-(3-methanesulfonyl-phenyl)-pyrrolo[2,1-f][1,2,4]triazin-2-yl]-amine]: the IC50 on JAK2 (setting [1]) was under 0.1 µM; on ALK (setting [2]), 1 to 10 µM.
As for `NC(=O)CN1CCC(c2ccc(Nc3ncc4ccc(-c5cccc(S(=O)(=O)NC6CC6)c5)n4n3)cc2)CC1` [Example 930, 2-(4-{4-[7-(3-Cyclopropylsulfamoyl-phenyl)-pyrrolo[2,1-f][1,2,4]triazin-2-ylamino]-phenyl}-piperidin-1-yl)-acetamide], the IC50 at JAK2 (setting [1]) and at ALK (setting [2]) was under 0.1 µM throughout.
Turning to `COc1ccccc1-c1ccc2cnc(Nc3ccc(C4(C#N)CCN(CC(N)=O)CC4)cc3)nn12` [Example 1548, 2-(4-Cyano-4-{4-[7-(2-methoxy-phenyl)-pyrrolo[2,1-f][1,2,4]triazin-2-ylamino]-phenyl}-piperidin-1-yl)-acetamide], the figures for the IC50 on JAK2 (JAK2 Kinase Inhibition) and on ALK (ALK Kinase Inhibition) were under 0.1 µM and 0.1 to 1 µM, respectively.
As to `CC1(C)C(=O)Nc2ccc(Nc3ncc4ccc(-c5ccccc5N5CCCS5(=O)=O)n4n3)cc21` [Example 1556, 5-({7-[2-(1,1-Dioxido-1,2-thiazolidin-2-yl)phenyl]pyrrolo[2,1-f][1,2,4]triazin-2-yl}amino)-3,3-dimethyl-1,3-dihydro-2H-indol-2-one], the IC50 on JAK2 (JAK2 Kinase Inhibition) and at ALK (ALK Kinase Inhibition) was under 0.1 µM each time.
In the case of `NC(=O)CN1CC(c2ccc(Nc3ncc4ccc(-c5cccc6c5OCC6)n4n3)cc2)C1` [Example 587, 2-(3-{4-[7-(2,3-Dihydro-benzofuran-7-yl)-pyrrolo[2,1-f][1,2,4]triazin-2-ylamino]-phenyl}-azetidin-1-yl)-acetamide], the IC50 at JAK2 (setting [1]) and at ALK (setting [2]) was under 0.1 µM each time.
In the case of `COc1ccccc1-c1ccc2cnc(Nc3ccc4c(c3)N(C)CCC4)nn12` [Example 982, [7-(2-Methoxy-phenyl)-pyrrolo[2,1-f][1,2,4]triazin-2-yl]-(1-methyl-1,2,3,4-tetrahydro-quinolin-7-yl)-amine], the IC50 was under 0.1 µM on JAK2 (setting [1]) and 1 to 10 µM on ALK (setting [2]).
The matching figures for `CC(=O)N1CCc2ccc(Nc3ncc4ccc(-c5cccc(C(=O)NC(C)(C)C)c5)n4n3)cc21` [Example 887, 3-[2-(1-Acetyl-2,3-dihydro-1H-indol-6-ylamino)-pyrrolo[2,1-f][1,2,4]triazin-7-yl]-N-tert-butyl-benzamide]: 0.1 to 1 µM and over 10 µM.
In the case of `CN1CCN(c2ccc(Nc3ncc4ccc(C5=CCC(S(C)(=O)=O)CC5)n4n3)cc2)CC1` (stereo not shown) [Example 620, [7-(4-Methanesulfonyl-cyclohex-1-enyl)-pyrrolo[2,1-f][1,2,4]triazin-2-yl]-[4-(4-methyl-piperazin-1-yl)-phenyl]-amine], the results for the IC50 at JAK2 (setting [1]) and on ALK (setting [2]) were under 0.1 µM and 0.1 to 1 µM, respectively.

The values above are taken from patent US8471005B2 (Cephalon, Inc., priority 2008, dated 2013).
